In US12486233B2 (Exelixis, Inc., priority 2014, dated 2025):
Each block holds one compound with its values, some of them ahead of it.

What was measured:
[1] = physical stability of amorphous material under stress conditions (temperature, relative humidity); type: physicochemical; conditions: 100° C. for 4 days
[2] = Dynamic Vapor Sorption (DVS): hygroscopicity and sorption properties; type: physicochemical; conditions: for hygroscopicity classification: 25° C., European Pharmacopeia classification where stated
Procedure: Dynamic Vapor Sorption (DVS) was performed using a Hiden Analytical Instruments IGAsorp Vapor Sorption Balance. Approximately 30 mg of sample was placed into a wire-mesh Vapor sorption balance pan, loaded into the IGAsorp Vapor sorption balance and held at 25° C.±0.1° C. The sample was subjected to a step profile from 0 to 90% RH at 10% increments, followed by desorption from 80% RH to 0% RH at 10% increments. The equilibrium criterion was set to 99.0% step completion within a minimum of […] and a maximum of 5 hours for each increment. The weight change during the sorption cycle was monitored, allowing for the hygroscopic nature of the sample to be determined. The data collection interval was in seconds.

[3] = permeability (BCS classification) in initial development experiments; type: in vitro ADME; conditions: free base
[4] = BCS classification / solubility in initial development experiments; type: physicochemical; conditions: free base; in water

SMILES: COc1cc2nccc(Oc3ccc(NC(=O)C4(C(=O)Nc5ccc(F)cc5)CC4)cc3)c2cc1OC [Compound 1 Amorphous Form, N-{4-[(6,7-dimethoxyquinolin-4-yl)oxy]phenyl}-N′-(4-fluorophenyl) cyclopropane-1,1-dicarboxamide]
- physical stability to heat stressing [1]: stable
- water uptake at 90% RH ([2]; DVS): approximately 5%
- hygroscopicity classification ([2]; DVS): hygroscopic
- total weight gain between 0% RH and 80% RH ([2]; DVS, sample dried at 0% RH first): 4 % w/w
- crystallization by XRPD of the sample post DVS ([2]; after the DVS cycle): no crystallization had occurred

SMILES: COc1cc2nccc(Oc3ccc(NC(=O)C4(C(=O)Nc5ccc(F)cc5)CC4)cc3)c2cc1OC [Compound 1 Form I, N-{4-[(6,7-dimethoxyquinolin-4-yl)oxy]phenyl}-N′-(4-fluorophenyl) cyclopropane-1,1-dicarboxamide]
- weight gain between 40% RH and 90% RH ([2]; DVS): very small weight gain
- hygroscopicity classification ([2]; DVS): non-hygroscopic
- stability at higher humidity ([2]; DVS, 40% RH to 90% RH): stable

SMILES: COc1cc2nccc(Oc3ccc(NC(=O)C4(C(=O)Nc5ccc(F)cc5)CC4)cc3)c2cc1OC [Compound 1 Form III, N-{4-[(6,7-dimethoxyquinolin-4-yl)oxy]phenyl}-N′-(4-fluorophenyl) cyclopropane-1,1-dicarboxamide]
- weight gain between 0% RH and 80% RH (in words) ([2]; DVS): very small weight gain
- hygroscopicity classification ([2]; DVS): non-hygroscopic

Second part, the compound after the results:

- weight gain between 0% RH and 80% RH (in words) ([2]; DVS): very small weight gain
- hygroscopicity classification ([2]; DVS): non-hygroscopic
SMILES: COc1cc2nccc(Oc3ccc(NC(=O)C4(C(=O)Nc5ccc(F)cc5)CC4)cc3)c2cc1OC [Compound 1 Form XXVIII, N-{4-[(6,7-dimethoxyquinolin-4-yl)oxy]phenyl}-N′-(4-fluorophenyl) cyclopropane-1,1-dicarboxamide]

- hygroscopicity classification ([2]; DVS): hygroscopic
SMILES: COc1cc2nccc(Oc3ccc(NC(=O)C4(C(=O)Nc5ccc(F)cc5)CC4)cc3)c2cc1OC [Compound 1 Form XXX, N-{4-[(6,7-dimethoxyquinolin-4-yl)oxy]phenyl}-N′-(4-fluorophenyl) cyclopropane-1,1-dicarboxamide]

- weight lost on drying to 0% RH ([2]; DVS, sample dried at 0% RH before sorption and desorption): −7%
SMILES: COc1cc2nccc(Oc3ccc(NC(=O)C4(C(=O)Nc5ccc(F)cc5)CC4)cc3)c2cc1OC [Compound 1 Form XXXI, N-{4-[(6,7-dimethoxyquinolin-4-yl)oxy]phenyl}-N′-(4-fluorophenyl) cyclopropane-1,1-dicarboxamide]

- permeability [3]: high permeability
- solubility [4]: low solubility
SMILES: COc1cc2nccc(Oc3ccc(NC(=O)C4(C(=O)Nc5ccc(F)cc5)CC4)cc3)c2cc1OC [Compound 1, N-{4-[(6,7-dimethoxyquinolin-4-yl)oxy]phenyl}-N′-(4-fluorophenyl) cyclopropane-1,1-dicarboxamide]
